Test results as given in patent US20190049428A1, “PLATELET AGGREGABILITY ANALYZING DEVICE, PLATELET AGGREGABILITY ANALYZING SYSTEM, PLATELET AGGREGABILITY ANALYZING PROGRAM, AND METHOD OF ANALYZING PLATELET AGGREGABILITY” (Sony Corporation, priority 2016, published 2019).

Test system: platelets in whole blood
Assay: Blood coagulability measurement of whole blood by dielectric constant (dielectric coagulometer, DiCA-Ex / DiCA-In)
Type: cell-based, human (healthy subject)
Method: Measurement of blood coagulability was conducted using the blood put to reaction in the experiment of 3-2 above. The measurement was carried out using a blood coagulation system analyzing device (dielectric coagulometer prototype No. 2), for performing the measurement of dielectric constant of the sample as aforementioned, and a comprehensive hemostatic ability measuring system ROTEM (registered trademark), at a measurement temperature of 37° C.
In the case of the blood coagulation system analyzing device, measurement of DiCA-Ex to which an aqueous calcium solution (0.2 M Ca) and a commercialized extrinsic stimulus reagent (100 fold dilution+PBS (v/v=1/5)) were added immediately before the start of measurement, and measurement of DiCA-In to which an aqueous calcium solution (0.2 M Ca) and a commercialized intrinsic stimulus reagent (+PBS(v/v=1/5)) were added, were conducted. The amount was unifiedly set to be 12 uL per 180 uL of blood.
The time of 10 minutes determinative of coagulation time was taken as an investigation time (FIG. 12-1), the maximum value was taken as 1, and the reciprocal of the difference therefrom was calculated (calculated CF), the results being depicted in FIG. 12-2. An average value obtained in the case where NaCl was added (control) was 17.7, whereas an average value obtained in the case where the platelet inducing substance was added was 12.7 (n=4).

`CCCCC[C@H](O)/C=C/[C@H]1[C@H](O)CC(=O)[C@@H]1CCCCCCC(=O)O` [prostaglandin E1] was tested, and the “difference between control and platelet inducing substance (platelet contribution part)” value (combination with ADP) was “this difference is reduced”.
With “thrombin receptive activated protein [TRAP]” the “amplitude of time variation in dielectric constant (normalized) at 100 kHz” value (whole blood, versus +NaCl control) was “the amplitude is raised”.
